These results are taken from patent US8378104B2 (OSI Pharmaceuticals, LLC, priority 2010, dated 2013).

Structures can show the parent of a compound that is named as a salt. Bounds are passed on as bounds.

Usually IC50 stands for the midpoint of a concentration-inhibition curve.

One test deals with pJNK in HCT-116 cells. The experiment in a line: Phospho-JNK (Thr183/Tyr185) Meso Scale ELISA assay, TNFα-stimulated HCT-116 cells. It counts as cell-based. As to conditions: Homo sapiens, read-out: mean HCT-116 pJNK ELISA IC50 (Col. B). Put shortly:
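HCT-116 cells in 1% FCS medium were pretreated with compound for 4 hrs at 37° C, then stimulated with TNFα at 10 ng/mL final for 10 minutes. Lysates were taken in ice-cold lysis buffer with phosphatase and protease inhibitors, and phospho-JNK (Thr183/Tyr185) was measured by Meso Scale ELISA.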
For orientation: In an ELISA, binding on a coated surface is turned into a signal by an enzyme label.

For a further test, the target named is T1, TAK1-TAB1 fusion protein (Homo sapiens, UniProt O43318).
T1 construct: purchased Carna
T1 sequence (O43318 with tags, fused parts or gaps limits assumed): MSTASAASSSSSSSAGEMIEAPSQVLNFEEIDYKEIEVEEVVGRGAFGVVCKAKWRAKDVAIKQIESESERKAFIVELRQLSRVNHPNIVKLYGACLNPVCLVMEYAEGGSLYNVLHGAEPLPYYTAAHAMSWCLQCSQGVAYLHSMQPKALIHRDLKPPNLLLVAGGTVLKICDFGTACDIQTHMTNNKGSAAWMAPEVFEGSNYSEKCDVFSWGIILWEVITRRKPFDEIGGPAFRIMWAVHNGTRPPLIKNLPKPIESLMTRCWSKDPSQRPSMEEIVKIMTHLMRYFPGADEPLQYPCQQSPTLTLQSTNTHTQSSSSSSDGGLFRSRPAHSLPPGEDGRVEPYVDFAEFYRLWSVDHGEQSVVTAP
Nature of the test: TAK1 biochemical assay (AlphaScreen, GST-MAP2K7 substrate). As to conditions: TAK1-TAB1 fusion protein, GST-MAP2K7 substrate; read-out: mean TAK1 IC50 (Col. A).

In another test the test system is p-p38 in HCT-116 cells. Nature of the test: Phospho-p38 Meso Scale ELISA assay, TNFα-stimulated HCT-116 cells. It is filed as cell-based. The following applies: Homo sapiens, read-out: mean HCT-116 p-p38 ELISA IC50 (Col. C). The method, boiled down: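 HCT-116 cells in 1% FCS medium for 2 h, then compound for 4 h at 37° C, then TNFα at 10 ng/mL final for 10 min. Lysates captured overnight at 4° C and phospho-p38 quantified by Meso Scale electrochemiluminescence ELISA.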

In the case of `Nc1ncc(-c2cnn(C3CCN(CC(F)(F)F)CC3)c2)c2cc(-c3cccc4cnccc34)oc12` [Example 84, 2-(isoquinolin-5-yl)-4-{1-[1-(2,2,2-trifluoroethyl)piperidin-4-yl]-1H-pyrazol-4-yl}furo[2,3-c]pyridin-7-amine], the IC50 with pJNK in HCT-116 cells is 0.1 to 1 µM; at TAK1-TAB1 fusion protein, 1 to 10 µM; in the test with p-p38 in HCT-116 cells it was 0.1 to 1 µM.

For the molecule `CC(=O)N1CCC(n2cc(-c3cnc(N)c4oc(-c5ccc(O)cc5C)cc34)cn2)CC1` [Example 135, 1-(4-{4-[7-amino-2-(4-hydroxy-2-methylphenyl)furo[2,3-c]pyridin-4-yl]-1H-pyrazol-1-yl}piperidin-1-yl)ethanone], the IC50 in the test on pJNK in HCT-116 cells, on TAK1-TAB1 fusion protein and in the test with p-p38 in HCT-116 cells was 0.1 to 1 µM each time.

For the molecule `CC(=O)N1CCC(n2cc(-c3cnc(N)c4oc(-c5cccc([N+](=O)[O-])c5C)cc34)cn2)CC1` [Example 218, 1-(4-{4-[7-amino-2-(2-methyl-3-nitrophenyl)furo[2,3-c]pyridin-4-yl]-1H-pyrazol-1-yl}piperidin-1-yl)ethanone], the IC50 in the test on pJNK in HCT-116 cells was 0.1 to 1 µM; at TAK1-TAB1 fusion protein it was below 0.1 µM; in the test on p-p38 in HCT-116 cells it was 0.1 to 1 µM.

`CC(=O)N1CCC(n2cc(-c3cnc(N)c4oc(-c5cccc(S(C)(=O)=O)c5)cc34)cn2)CC1` [Example 101, 1-[4-(4-{7-amino-2-[3-(methylsulfonyl)phenyl]furo[2,3-c]pyridin-4-yl}-1H-pyrazol-1-yl)piperidin-1-yl]ethanone]: the IC50 with pJNK in HCT-116 cells, at TAK1-TAB1 fusion protein and in the test on p-p38 in HCT-116 cells was 1 to 10 µM each time.

On to `Nc1ncc(-c2cnn(C3CC(=O)C3)c2)c2cc(-c3csc4cnccc34)oc12` [Example 315, 3-[4-(7-amino-2-thieno[2,3-c]pyridin-3-yl-furo[2,3-c]pyridin-4-yl)-pyrazol-1-yl]-cyclobutanone], for which the IC50 in the test on pJNK in HCT-116 cells, at TAK1-TAB1 fusion protein and in the test on p-p38 in HCT-116 cells was 0.1 to 1 µM throughout.

Turning to `CC(=O)N1CCC(n2cc(-c3cnc(N)c4oc(-c5c[nH]c6cnccc56)cc34)cn2)CC1` [Example 86, 1-(4-{4-[7-amino-2-(1H-pyrrolo[2,3-c]pyridin-3-yl)furo[2,3-c]pyridin-4-yl]-1H-pyrazol-1-yl}piperidin-1-yl)ethanone], the IC50 was 1 to 10 µM with pJNK in HCT-116 cells, below 0.1 µM at TAK1-TAB1 fusion protein and 1 to 10 µM in the test on p-p38 in HCT-116 cells.

As to `CC(=O)N1CCC(n2cc(-c3cnc(N)c4oc(-c5cccc6nnsc56)cc34)cn2)CC1` [Example 224, 1-(4-{4-[7-amino-2-(1,2,3-benzothiadiazol-7-yl)furo[2,3-c]pyridin-4-yl]-1H-pyrazol-1-yl}piperidin-1-yl)ethanone diformate salt], the half-inhibitory concentration (IC50) with pJNK in HCT-116 cells, on TAK1-TAB1 fusion protein and with p-p38 in HCT-116 cells was below 0.1 µM throughout.

For `Nc1ncc(-c2cc[nH]c2)c2cc(-c3csc4cnccc34)oc12` [Example 376, 4-(1H-pyrrol-3-yl)-2-thieno[2,3-c]pyridin-3-yl-furo[2,3-c]pyridin-7-ylamine], the IC50 in the test on pJNK in HCT-116 cells was 0.1 to 1 µM; on TAK1-TAB1 fusion protein it was 1 to 10 µM; in the test with p-p38 in HCT-116 cells it was 1 to 10 µM.

Take `CC(C)(C)OC(=O)N1CCC(n2cc(-c3cnc(N)c4oc(-c5csc6cnccc56)cc34)cn2)CC1` [Example 300, 4-[4-(7-amino-2-thieno[2,3-c]pyridin-3-yl-furo[2,3-c]pyridin-4-yl)-pyrazol-1-yl]piperidine-1-carboxylic acid tert-butyl ester]: the IC50 with pJNK in HCT-116 cells, on TAK1-TAB1 fusion protein and with p-p38 in HCT-116 cells was 0.1 to 1 µM in each case.

As for `CC(=O)N1CCC(n2cc(-c3cnc(N)c4oc(-c5ccc6c(c5)OCO6)cc34)cn2)CC1` [Example 117, 1-(4-{4-[7-amino-2-(1,3-benzodioxol-5-yl)furo[2,3-c]pyridin-4-yl]-1H-pyrazol-1-yl}piperidin-1-yl)ethanone], the IC50 in the test on pJNK in HCT-116 cells, at TAK1-TAB1 fusion protein and with p-p38 in HCT-116 cells was 1 to 10 µM each time.

`CC(=O)N1CCC(n2cc(-c3cnc(N)c4oc(-c5ccc6occc6c5)cc34)cn2)CC1` [Example 114, 1-(4-{4-[7-amino-2-(1-benzofuran-5-yl)furo[2,3-c]pyridin-4-yl]-1H-pyrazol-1-yl)piperidin-1-yl]ethanone]: the IC50 with pJNK in HCT-116 cells is 0.1 to 1 µM; on TAK1-TAB1 fusion protein it was 1 to 10 µM; in the test with p-p38 in HCT-116 cells, 0.1 to 1 µM.

Consider `CC(=O)N1CCC(n2cc(-c3cnc(N)c4oc(-c5ccc(O)c(Cl)c5)cc34)cn2)CC1` [Example 136, 1-(4-{4-[7-amino-2-(3-chloro-4-hydroxyphenyl)furo[2,3-c]pyridin-4-yl]-1H-pyrazol-1-yl}piperidin-1-yl)ethanone], for which the IC50 in the test with pJNK in HCT-116 cells is 0.1 to 1 µM; on TAK1-TAB1 fusion protein, 0.1 to 1 µM; in the test with p-p38 in HCT-116 cells it was 1 to 10 µM.

`Nc1ncc(-c2cnn(C3CCNCC3)c2)c2cc(-c3cccc4cnsc34)oc12` [Example 323, 2-benzo[d]isothiazol-7-yl-4-(1-piperidin-4-yl-1H-pyrazol-4-yl)-furo[2,3-c]pyridin-7-ylamine]: the concentration for half-maximal inhibition (IC50) is 1 to 10 µM in the test with pJNK in HCT-116 cells, below 0.1 µM at TAK1-TAB1 fusion protein and 0.1 to 1 µM with p-p38 in HCT-116 cells.

Regarding `Cn1cc(-c2cnc(N)c3oc(-c4cccc5cnccc45)cc23)cn1` [Example 70, 2-(isoquinolin-5-yl)-4-(1-methyl-1H-pyrazol-4-yl)furo[2,3-c]pyridin-7-amine], the IC50 in the test on pJNK in HCT-116 cells lay in the range of 0.1 to 1 µM; on TAK1-TAB1 fusion protein, 1 to 10 µM; in the test on p-p38 in HCT-116 cells, 0.1 to 1 µM.

With `CCN1CCC(n2cc(-c3cnc(N)c4oc(-c5cccc6cnccc56)cc34)cn2)CC1` [Example 78, 4-[1-(1-ethylpiperidin-4-yl)-1H-pyrazol-4-yl]-2-(isoquinolin-5-yl)furo[2,3-c]pyridin-7-amine], the IC50 in the test on pJNK in HCT-116 cells, at TAK1-TAB1 fusion protein and in the test on p-p38 in HCT-116 cells was 0.1 to 1 µM throughout.

Take `Nc1ncc(-c2cnn(C3CNC3)c2)c2cc(-c3csc4cnccc34)oc12` [Example 314, 4-(1-azetidin-3-yl-1H-pyrazol-4-yl)-2-thieno[2,3-c]pyridin-3-yl-furo[2,3-c]pyridin-7-ylamine]: the IC50 in the test with pJNK in HCT-116 cells was 1 to 10 µM; on TAK1-TAB1 fusion protein it was below 0.1 µM; in the test on p-p38 in HCT-116 cells, 0.1 to 1 µM.

For `Cn1cc(-c2cnc(N)c3oc(-c4c[nH]c5cnccc45)cc23)cn1` [Example 88, 4-(1-methyl-1H-pyrazol-4-yl)-2-(1H-pyrrolo[2,3-c]pyridin-3-yl)furo[2,3-c]pyridin-7-amine trifluoroacetic acid salt], the results for the half-inhibitory concentration (IC50) in the test with pJNK in HCT-116 cells, on TAK1-TAB1 fusion protein and in the test with p-p38 in HCT-116 cells were 0.1 to 1 µM, below 0.1 µM and 0.1 to 1 µM, respectively.

Consider `CNc1ncc(-c2cnn([C@H]3CC[C@H](O)CC3)c2)c2cc(-c3csc4cnccc34)oc12` [Example 281, trans-4-{4-[7-(methylamino)-2-(thieno[2,3-c]pyridin-3-yl)furo[2,3-c]pyridin-4-yl]-1H-pyrazol-1-yl}cyclohexanol], for which the IC50 with pJNK in HCT-116 cells, at TAK1-TAB1 fusion protein and with p-p38 in HCT-116 cells was below 0.1 µM each time.

Take `CC(=O)N1CCC(n2cc(-c3cnc(N)c4oc(-c5ccccc5C)cc34)cn2)CC1` [Example 410, 1-(4-{4-[7-amino-2-(2-methylphenyl)furo[2,3-c]pyridin-4-yl]-1H-pyrazol-1-yl}piperidin-1-yl)ethanone]: the IC50 with pJNK in HCT-116 cells was in the range of 0.1 to 1 µM; on TAK1-TAB1 fusion protein it was 0.1 to 1 µM; in the test with p-p38 in HCT-116 cells, 1 to 10 µM.

Turning to `COc1nn([C@H]2CC[C@@H](O)CC2)cc1-c1cnc(N)c2oc(-c3csc4cnccc34)cc12` [Example 303, 4-[4-(7-amino-2-thieno[2,3-c]pyridin-3-yl-furo[2,3-c]pyridin-4-yl)-3-methoxy-pyrazol-1-yl]-cyclohexanol], the IC50 with pJNK in HCT-116 cells fell in the range of 0.1 to 1 µM; on TAK1-TAB1 fusion protein it was 0.1 to 1 µM; in the test with p-p38 in HCT-116 cells it was 1 to 10 µM.

For `Nc1ncc(-c2cnn(C3CCNCC3)c2)c2cc(-c3ccc4[nH]ncc4c3)oc12` [Example 18, 2-(1H-indazol-5-yl)-4-[1-(piperidin-4-yl)-1H-pyrazol-4-yl]furo[2,3-c]pyridin-7-amine hydrochloride], the IC50 in the test on pJNK in HCT-116 cells is 0.1 to 1 µM; on TAK1-TAB1 fusion protein it was below 0.1 µM; in the test with p-p38 in HCT-116 cells, 0.1 to 1 µM.

For the molecule `CC(=O)N1CCC(n2cc(-c3cnc(N)c4oc(-c5cccc6ccccc56)cc34)cn2)CC1` [Example 105, 1-(4-{4-[7-amino-2-(naphthalen-1-yl)furo[2,3-c]pyridin-4-yl]-1H-pyrazol-1-yl}piperidin-1-yl)ethanone], the figures for the IC50 in the test with pJNK in HCT-116 cells, on TAK1-TAB1 fusion protein and with p-p38 in HCT-116 cells were 1 to 10 µM, 0.1 to 1 µM and 1 to 10 µM, respectively.

Regarding `Nc1ncc(-c2cnn([C@H]3CC[C@H](O)CC3)c2)c2cc(-c3cc(F)cc4cnsc34)oc12` [Example 238, trans-4-{4-[7-amino-2-(5-fluoro-1,2-benzothiazol-7-yl)furo[2,3-c]pyridin-4-yl]-1H-pyrazol-1-yl}cyclohexanol diformate salt], the IC50 in the test on pJNK in HCT-116 cells is below 0.1 µM; on TAK1-TAB1 fusion protein, 0.1 to 1 µM; with p-p38 in HCT-116 cells, 0.1 to 1 µM.
